Common to all, as to type: cell-based
One series has as its system SK-MEL-5. Briefly: Melanoma cytotoxicity assay (resazurin). Particulars: human, 24 h. In short, it runs like this:
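Viability read by resazurin fluorescence (ex 544, em 590 nm) after 6 h, following 24 h compound exposure of cells plated 24 h earlier (~4000/well). Triplicate means, minus medium blank, divided by DMSO control; IC50 derived from sigmoidal dose-response curves.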
For orientation: Resazurin is reduced to fluorescent resorufin, in cell work by metabolically active cells.

For a further series, the system named is SK-MEL-25. Briefly: Melanoma cytotoxicity assay (resazurin). Particulars: for IC50: Homo sapiens; for SK-MEL-25 (% viability): human, 24 h. In short, it runs like this: (§1)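 Cells are plated at roughly 4000 per well and allowed 24 h before compound addition in triplicate. After a further 24 h, resazurin is added for 6 h and fluorescence measured; percent viability is normalized to DMSO-treated wells.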

Another series deals with SK-MEL-28. Briefly: Melanoma cytotoxicity assay (resazurin). Particulars: for IC50: Homo sapiens, SK-MEL-28 melanoma cells; for SK-MEL-28 (% viability): human, 24 h. In a few lines:
as §1

In another series the test system is LOX IMVI. Briefly: Melanoma cytotoxicity assay (resazurin). Particulars: for IC50: Homo sapiens, LOX IMVI melanoma cells; for LOX-IMVI (% viability): human, 24 h. In a few lines:
as §1

The next series relates to MALME-3M. Put plainly: Melanoma cytotoxicity assay (resazurin). Particulars: human, 24 h. The method, then: On day 1, the cell line trypsinized and centrifuged to form cell pellet. The pellet was diluted in media, then counted using Countess automated cell counter. Approximately 4000 cells (198 uL) per well plated in […]. A control well of 200 uL growth media was also prepared. Wells closest to plate perimeter were filled with 200 uL PBS to prevent inner well evaporation. The 96 well plates are incubated in 37° C. incubator at 5% CO2 for 24 hours.
On day 2, compounds were added (in triplicate) along with DMSO/Dacarbazine controls (2 uL) added to bring wells to volume of 200 μL. The 96 well plates are incubated in 37° C. incubator at 5% CO2 for 24 hours.
On day 3, 40 μL of 0.15 mg/ml reszurin solution added to wells. Samples were placed in a 37° C. incubator at 5% CO2 for 6 hours. Excitation and emission for fluorescence measured at 544 nm and 590 nm using BMG Labtech Fluostar Optima plate reader
Percent viability determined by taking average of each triplicate well fluorescence and subtracting GM well reading to remove the background signal. This difference is then divided by the average of the negative control (DMSO) wells to determine percent viability.
IC50s were determined by using cereal dilution of compound to determine viability. Viabilities and concentration of cells are analyzed in Graphpad Prism by creating sigmoidal curve graph, which will determine the IC50 concentration.
We analyzed the ability of the thiazole-androstane derivatives to inhibit growth in various melanoma cell lines. The growth inhibition against melanoma cell lines of various compound is shown below in Tables 19 and 20. Inhibition results are reported as the IC50 concentration in μM of the indicated compound or as the percent viability […] of the indicated compound. NA=not available.

In the next series the test system is HFF-1. Briefly: Cytotoxicity assay (resazurin). Particulars: Homo sapiens, HFF-1 cells.
Where [1] appears, read: SK-MEL-25 melanoma cells (head prints SK-25), read-out: SK-25 IC50.

Like-named read-outs stand apart in the source and are kept apart here.

One may read the IC50 as the concentration needed to halve the response being measured.

Take `C[C@]12CC[C@H]3[C@@H](CC=C4c5sc(Nc6ccc(F)cc6)nc5CC[C@@]43C)[C@@H]1CC[C@@H]2O` [IIIa.12, (1S,2R,13R,14S,17S,18S)-7-(4-fluoroanilino)-2,18-dimethyl-8-thia-6-azapentacyclo[11.7.0.02,10.05,9.014,18]icosa-5(9),6,10-trien-17-ol]: in the series with SK-MEL-5, the “SK-MEL-5 (% viability)” value came to 3.66%. For the same compound, the IC50 in the series on SK-MEL-25 (setting [1]) turned out to be 7 µM; in the series with SK-MEL-28, 10 µM; with LOX IMVI, 5.2 µM; in the series on HFF-1 (read-out: HFF-1 (IC50)), 24 µM. Moreover, the “SK-MEL-25 (% viability)” value with SK-MEL-25 came out at 7.33%. Also, in the series with SK-MEL-28, the “SK-MEL-28 (% viability)” value is given as 2.35%. In addition, the “LOX-IMVI (% viability)” value in the series with LOX IMVI is reported as 12%. The “MALME-3M (% viability)” value with MALME-3M amounted to 35.97%.
Regarding `C[C@]12CC[C@H]3[C@@H](CC=C4c5sc(Nc6ccc(F)cc6F)nc5CC[C@@]43C)[C@@H]1CC[C@@H]2O` [IIIa.13, (1S,2R,13R,14S,17S,18S)-7-(2,4-difluoroanilino)-2,18-dimethyl-8-thia-6-azapentacyclo[11.7.0.02,10.05,9.014,18]icosa-5(9),6,10-trien-17-ol], in the series with SK-MEL-5, the “SK-MEL-5 (% viability)” value came to 4.9%. Moreover, the IC50 was 8 µM in the series with SK-MEL-25 (setting [1]), 11 µM with SK-MEL-28, 6.42 µM in the series with LOX IMVI and 25 µM in the series with HFF-1 (read-out: HFF-1 (IC50)). For the same compound, in the series on SK-MEL-25, the “SK-MEL-25 (% viability)” value is recorded as 8.72%. Moreover, in the series on SK-MEL-28, the “SK-MEL-28 (% viability)” value turned out to be 3.92%. In the series on MALME-3M, the “MALME-3M (% viability)” value was 20.83%.
Turning to `C[C@]12CC[C@H]3[C@@H](CC=C4c5sc(Nc6ccccn6)nc5CC[C@@]43C)[C@@H]1CC[C@@H]2O` [IIIa.24, (1S,2R,13R,14S,17S,18S)-2,18-dimethyl-7-(2-pyridylamino)-8-thia-6-azapentacyclo[11.7.0.02,10.05,9.014,18]icosa-5(9),6,10-trien-17-ol], the “SK-MEL-5 (% viability)” value with SK-MEL-5 was determined as 2.25%. The “SK-MEL-25 (% viability)” value in the series with SK-MEL-25 came out at 1.76%. Moreover, in the series on SK-MEL-28, the “SK-MEL-28 (% viability)” value was found to be 1.50%. Besides, the IC50 in the series on LOX IMVI and in the series with HFF-1 (read-out: HFF-1 (IC50)) was over 20 µM throughout. For the same compound, in the series with MALME-3M, the “MALME-3M (% viability)” value worked out at 10.69%.
Regarding `Cc1ccc(Nc2nc3c(s2)C2=CC[C@H]4[C@@H]5CC[C@H](O)[C@@]5(C)CC[C@@H]4[C@@]2(C)CC3)cc1` [IIIa.33, (1S,2R,13R,14S,17S,18S)-2,18-dimethyl-7-(4-methylanilino)-8-thia-6-azapentacyclo[11.7.0.02,10.05,9.014,18]icosa-5(9),6,10-trien-17-ol], the “SK-MEL-5 (% viability)” value with SK-MEL-5 came to 1.21%. Also, the IC50 with SK-MEL-25 (setting [1]) is 6 µM; in the series with SK-MEL-25 (SK-MEL-25 melanoma cells, 24 hours, resazurin, read-out: SK-MEL-25 (IC50)), under 10 µM; in the series on SK-MEL-28, 6 µM; in the series on SK-MEL-28 (24 hours, resazurin), under 10 µM; with LOX IMVI, 4.64 µM; in the series on LOX IMVI (24 hours, resazurin) it was under 10 µM. Moreover, the IC50 in the series with HFF-1 (read-out: HFF-1 (IC50)) and with HFF-1 (read-out: IC50 in cell line HFF-1) was 13 µM in each case. Moreover, the “SK-MEL-25 (% viability)” value in the series with SK-MEL-25 amounted to 7.53%. Moreover, the “SK-MEL-28 (% viability)” value with SK-MEL-28 came out at 0.90%. Besides, the “LOX-IMVI (% viability)” value in the series on LOX IMVI is 6%. Moreover, the “MALME-3M (% viability)” value in the series with MALME-3M worked out at 23.03%.
